Assay results taken from US6869929B2, “Use of transcription factors for treating inflammation and other diseases” (Beth Israel Deaconess Medical Center, priority 2000, dated 2005).

Legend:
ESE-1 [1] = experiment: ESE-1 mRNA RT-PCR in RA synovial fibroblasts; format: cell-based, human; conditions: for ESE-1 mRNA expression, agent alone: 4th passage RA synovial fibroblasts
Experimental: Tissues from patients with rheumatoid arthritis (RA) were obtained as discarded materials from total joint replacement surgery or synovectomy. RA synovial tissue samples were cultured for the generation of adherent synovial fibroblasts. Dispersed synovial tissues were prepared by a previously published method (Goldring, S. R., et al. 1983. The synovial-like membrane at the bone-cement interface in loose total hip replacements and its proposed role in bone lysis. J Bone Joint Surg 65:575-84). Cells were subjected to 2-4 passages and stimulated with IL-1β (R&D Systems) at 100 pg/ml or with TNF-α (R&D Systems) at 5 ng/ml.
(§1) cDNAs were generated from 1 μg of total RNA using Ready-To-Go™ You-prime First-Strand Beads (Amersham Pharmacia Biotech Inc). RT-PCR amplifications of 0.1 μg cDNA were carried out using a MJResearch thermal cycler PTC-100 as follows: 5 min at 94° C., 20-37 cycles of 30 sec at 94° C., 30 sec at 56° C., and 30 sec at 72° C., followed by 5 min at 72° C. (Oettgen, P., et al. 2000, J Biol Chem 275:1216-25). The sequences of the human ESE-1 primers and the primers for human GAPDH were as described (Oettgen, P., et al. 1999, J Biol Chem 274:29439-52).
The synovium in RA is comprised of heterogeneous cell populations including monocyte/macrophages, lymphocytes and synovial fibroblasts. To evaluate whether ESE-1 expression in synovial fibroblasts is regulated by proinflammatory cytokines, 4th passage synovial fibroblasts isolated from RA synovium were stimulated for different times with IL-1β in the absence or presence of indomethacin. […] They also indicate that cytokine-induced prostaglandins may modulate steady state ESE-1 mRNA levels. […] We, therefore, focused our attention in further studies on IL-1β.

COL2A1 promoter = COL2A1 promoter luciferase cotransfection in T/C-28a2 cells; format: cell-based, human; conditions: for inhibition of COL2A1/4.0 activity: T/C-28a2, pGL3 construct, highest concentrations tested
Experimental: The COL2A1 sequence spanning −577 to +3428 bp (Goldring M B, et al, J Cell Biochem 1994;54:85-99, 39) was cloned into the pGL2-basic (pGL2B) luciferase reporter gene vector (Promega,) and named pGL2-COL2/4.0. Deletion constructs containing −577/+125 bp, −131/+125 bp, −87/+125 bp were prepared by enzyme digestion of pGL2-COL2/4.0 using PstI, ApaI, and PuuII, followed by ligation. For the deletion constructs −45/+125 bp, −83/+7 bp, and −45/+7 bp, PCR products were generated as described (Osaki et al.) and cloned into the pGL2-Basic luciferase vector. These reporter constructs were used as templates to generate point mutations or internal deletions by PCR mutagenesis employing the oligonucleotides listed in FIG. 16 and the QuikChange™ Site-Directed Mutagenesis Kit (Stratagene, La Jolla, Calif.). DNA fragments containing point mutations were then cloned into the pGL2B vector and confirmed by DNA sequencing using a G2 primer on pGL2 DNA. Deletions were also made in the −577/+127 bp COL2A1 promoter construct using the ExSite™ PCR-Based Site-Directed Mutagenesis Kit (Stratagene).
Transient transfection experiments were carried out in C-28/I2 cells using LipofectAMINE PLUS™ Reagent (Life Technologies). Cells were seeded in 6-well tissue culture plates at 3.5×10^5 cells/well in DMEM/F12 containing 10% FCS 24 h prior to transfection. For each well, 1 μg of COL2A1-luciferase construct, 6 μl of PLUS reagent and 92 μl of serum-free DMEM/F12 were mixed and incubated for 15 min at room temperature. LipofectAMINE+ reagent (4 μl) in 100 μl of serum-free medium was then added to each reaction mixture and incubation was continued for an additional 30 min at room temperature. Finally, the transfection mixture was combined with 800 μl of serum-free medium and the lipid-nucleic acid complex was transferred to the washed cell monolayer in each well. After incubation for 4 h at 37° C., the transfection mix was diluted with an equal volume of DMEM/F12 containing 2% Nutridoma-SP, and incubation continued for 18 h in the absence or presence of IL-1β. For cotransfections, the cells were incubated for 24 h to permit expression of recombinant proteins prior to treatment with IL-1β for a further 18 h. Cell lysates were prepared by extraction with 200 μl of Reporter Lysis Buffer (Promega) and the protein content was determined using the Coomassie Plus Protein Assay Reagent (PIERCE). Luciferase activities were determined by chemiluminescence assay using the Autolumat LB953 luminometer (EG&G Berthold, Oak Ridge, Tenn.), normalized to the amount of protein. Each data point was calculated as the mean±standard deviation for three independently transfected cultures from one representative of at least three experiments. […]

ESE-1 [2] = experiment: ESE-1 mRNA RT-PCR in immortalized chondrocytes T/C28a2, C28/I2, C20/A4; format: cell-based, human; conditions: T/C28a2, C28/I2 and C20/A4 chondrocytes; 24 hours
Experimental: (§2) U-87 Mg and U-138 Mg (human glioma), THP-1 (human monocytic), RAW 264.7 (murine monocytic), LB-12 (human osteoblast-like large T antigen transformed bone marrow stromal cells), and human chondrocytes were grown and treated with cytokines as described (Apperley, J., et al. 1990. J Bone Mineral Res. 5:S93; Goldring, M. B., et al. 1994. J Clin Invest 94:2307-16; Goldring, S. R., et al. 1983. J Bone Joint Surg 65:575-84; Libermann, T. A., et al. 1987. Embo J. 6:1627-1632).
as §1
To test the hypothesis that ESE-1 is a mediator of cytokine responses in non-epithelial cell types, we analyzed ESE-1 expression in response to a variety of cytokines in several connective tissue cell types. Immortalized human chondrocytes, T/C28a2, C28/I2, and C20/A4 (Goldring, M. B., et al. 1994, J Clin Invest 94:2307-16), were stimulated with IL-1β, TNF-α and IFN-γ for 24 hours. […] The kinetics of ESE-1 induction was explored in a time course experiment with T/ C28a2 chondrocytes.

ESE-1 [3] = experiment: ESE-1 mRNA Northern blot in LB-12 osteoblasts; format: cell-based, human; conditions: LB-12 cells
Experimental: as §2
Total RNA was harvested using QIAshreder (Qiagen) and RNeasy® Mini Kit (Quiagen) or Trizol (Gibco BRL). Poly A^+ RNA was prepared with MicroPoly(A) Pure (Ambion). Northern blots (5 μg total RNA) were hybridized using a full length ESE-1 cDNA probe as described (Oettgen, P., et al. et al. 1997, Mol Cell Biol 17:4419-33.).
Osteoblasts, the bone cells responsible for bone formation, represent another connective tissue cell target of inflammatory cytokines in joint disorders (Bogoch, E. R., and E. Moran. 1998, Can J Surg 41:264-71). […] LB-12 cells were incubated for different times in the absence or presence of IL-1β. […] Since the rapid, but transient induction of ESE-1 resembles that of immediate early genes, we tested the effect of the protein synthesis inhibitor cycloheximide which superinduces expression of certain genes due to mRNA stabilization. Cycloheximide alone had no effect, but superinduced IL-1β-mediated ESE-1 mRNA expression (FIG. 11d).

[4] = target: T1, p65 subunit of NF-kB, full-length, in vitro translated (UniProt Q04206 1-551, limits assumed, 35S-methionine labeled (pull-down assay)); experiment: GST pull-down, 35S-labeled in vitro translated p65
T1 construct: mature; In the pull-down it was translated in rabbit reticulocyte lysate with 35S-methionine; in the cotransfections it was expressed from pCI; also called p65 Rel domain protein
T1 sequence (Q04206 whole entry, the tested form may be a part): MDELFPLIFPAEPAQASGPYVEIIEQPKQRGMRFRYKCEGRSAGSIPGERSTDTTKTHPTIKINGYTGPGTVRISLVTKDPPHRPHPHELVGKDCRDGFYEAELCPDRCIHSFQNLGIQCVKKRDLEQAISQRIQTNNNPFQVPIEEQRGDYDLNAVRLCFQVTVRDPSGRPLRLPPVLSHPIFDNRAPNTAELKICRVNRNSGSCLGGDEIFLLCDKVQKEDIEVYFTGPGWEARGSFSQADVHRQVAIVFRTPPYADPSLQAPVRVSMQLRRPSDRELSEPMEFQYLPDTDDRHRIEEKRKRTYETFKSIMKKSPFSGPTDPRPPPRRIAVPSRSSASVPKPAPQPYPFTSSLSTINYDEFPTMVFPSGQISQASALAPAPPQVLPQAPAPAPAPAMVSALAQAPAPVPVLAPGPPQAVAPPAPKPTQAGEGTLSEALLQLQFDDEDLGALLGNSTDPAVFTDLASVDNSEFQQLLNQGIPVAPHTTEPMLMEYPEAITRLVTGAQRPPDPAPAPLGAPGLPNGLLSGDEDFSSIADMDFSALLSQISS
Experimental: A series of GST-ESE-1 fusion proteins were generated by PCR with specific primers to contain in frame restriction enzyme sites and sequenced to confirm that there were no mutations introduced by the PCR. GST-ESE-1 fusion proteins were prepared as previously described. 35S-methionine labeled in vitro translated full-length p50 and p65 were incubated with equal amounts of GST-ESE-1 fusion proteins or GST on agarose beads in 200 ul of NETN(0.5% Nonidet P-40, 1 mM EDTA, 20 mM Tris-HCl, pH 8.0, 100 mM NaCl) for 3 h at 4 degrees C. with gentle shaking. Bound p50 or p65 proteins were then eluted after three washings with NETN buffer and analyzed on a 12% SDS-polyacrylamide gel.

NOS2 promoter [5] = experiment: ESE-1 transactivation of NOS2 promoter luciferase reporter, cotransfection in RAW cells; format: cell-based, murine; conditions: cotransfected with ESE-1
Experimental: (§3) A 1516 and 265 bp fragment corresponding to nucleotides (−1485 to +31) and (−234 to +31) of the murine NOS2 gene promoter were subcloned into the PGL2 luciferase reporter(Promega).
(§4) Co-transfections of 2×10^5 RAW cells or RASMCs were carried out with 0.6 μg reporter gene construct DNA and 0.6 μg expression vector DNA using 6 μl lipofectamine (Gibco-BRL) as described (Oettgen, P., et al. 1996. Characterization of NERF, a novel transcription factor related to the Ets factor ELF-1. Mol Cell Biol 16:5091-106). The cells were harvested 16 hours after transfection and assayed for luciferase activity. Transfections for every construct were performed independently in duplicates and repeated 3 times with two different plasmid preparations with similar results. Cotransfection of a second plasmid for determination of transfection efficiency was omitted because potential artifacts with this technique have been reported and because many commonly used viral promoters contain potential binding sites for ets factors (Farr, A., and A. Roman. 1992. A pitfall of using a second plasmid to determine transfection efficiency. Nucleic Acids Res 20:920).
The ability of ESE-1 DN 1 to block transactivation of the NOS2 promoter was tested in RAW cells. Cotransfection of ESE-1 with the NOS2 promoter led to an approximate 12-fold increase in transactivation. […]

NOS2 promoter [6] = experiment: LPS (endotoxin) induction of NOS2 promoter luciferase reporter in RAW cells; format: cell-based, murine
Experimental: as §3, §4
In the presence of LPS, the ESE-1 DN1 protein blocked induction of the NOS2 promoter by LPS by approximately 70-75%. (See FIG. 21C).

COc1ccc2c(c1)c(CC(=O)O)c(C)n2C(=O)c1ccc(Cl)cc1 [indomethacin]
ESE-1 mRNA expression, agent alone (ESE-1 [1]): did not express detectable ESE-1 mRNA
IL-1β-induced ESE-1 mRNA levels in presence of agent (ESE-1 [1]; RA synovial fibroblasts, 6 hours, 24 hours, 5 days): stabilized and did not decline even after 5 days

ESE-3: ESE family Ets factor overexpressed by cotransfection
inhibition of pGL2-COL2/4.0 (COL2A1 promoter; highest concentration tested): ~60%

IFN-γ: cytokine tested on chondrocytes
ESE-1 expression (ESE-1 [2]): failed to induce ESE-1 expression

pCI-ELF1: expression vector for the ETS factor ELF-1
inhibition of COL2A1/4.0 activity (COL2A1 promoter): 65%

pCI-NERF2: expression vector for the ETS factor NERF-2
inhibition of COL2A1/4.0 activity (COL2A1 promoter): 40%

TNF-α
ESE-1 mRNA expression, agent alone (ESE-1 [1]): minimal ESE-1 induction
ESE-1 expression (ESE-1 [2]): stimulated ESE-1 expression in T/ C28a2 cells to similar levels as IL-1β, but only weakly in C28/I2 and C20/A4 cells

C[C@]12CCC(=O)C=C1CC[C@@H]1[C@@H]2[C@@H](O)C[C@@]2(C)[C@H]1CC[C@]2(O)C(=O)CO [Hydrocortisone]
IL-1β-mediated ESE-1 mRNA expression in presence of agent (ESE-1 [3]): strongly enhanced
ESE-1 mRNA expression, agent alone (ESE-1 [3]; 1, 2, 6, 24 hours): did not induce

B1: GST-ESE-1 fusion protein, full length ESE-1 (other, UniProt P78545 1-371, looked up)
chain: MAATCEISNIFSNYFSAMYSSEDSTLASVPPAATFGADDLVLTLSNPQMSLEGTEKASWLGEQPQFWSKTQVLDWISYQVEKNKYDASAIDFSRCDMDGATLCNCALEELRLVFGPLGDQLHAQLRDLTSSSSDELSWIIELLEKDGMAFQEALDPGPFDQGSPFAQELLDDGQQASPYHPGSCGAGAPSPGSSDVSTAGTGASRSSHSSDSGGSDVDLDPTDGKLFPSDGFRDCKKGDPKHGKRKRGRPRKLSKEYWDCLEGKKSKHAPRGTHLWEFIRDILIHPELNEGLMKWENRHEGVFKFLRSEAVAQLWGQKKKNSNMTYEKLSRAMRYYYKREILERVDGRRLVYKFGKNSSGWKEEEVLQSRN
notes: mature; GST fusion on agarose beads in the pull-down; also called full length ESE-1 protein; not shown: glutathione S-transferase (GST) fusion partner
binding result [4]: no binding

B2: ESE-1 DN1: dominant negative ESE-1 protein lacking amino acids 26 through 192, expressed from pCI plasmid (SEQ ID NO: 39) (protein, listed as Homo sapiens)
chain: MAATCEISNIFSNYFSAMYSSEDSTAGTGASRSSHSSDSGGSDVDLDPTDGKLFPSDGFRDCKKGDPKHGKRKRGRPRKLSKEYWDCLEGKKSKHAPRGTHLWEFIRDILIHPELNEGLMKWENRHEGVFKFLRSEAVAQLWGQKKKNSNMTYEKLSRAMRYYYKREILERVDGRRLVYKFGKNSSGWKEEEVLQSRN
ESE-1 transactivation of the NOS2 promoter blocked by (NOS2 promoter [5]): 60-70%
induction of the NOS2 promoter by LPS blocked by (NOS2 promoter [6]; in the presence of LPS): 70-75%
basal NOS2 promoter activity (NOS2 promoter [6]; prior to LPS induction): slight reduction
